Results on 17 molecules are retold here after PMC9860845, “Synthesis, DFT Studies, Molecular Docking and Biological Activity Evaluation of Thiazole-Sulfonamide Derivatives as Potent Alzheimer’s Inhibitors” (Molecules, 2023).

Where two headings read alike, the source gives them in different places.

The target of test [1] is acetylcholinesterase (AChE) (Homo sapiens, UniProt P22303). Briefly: biochemical.
Test [2] concerns the target butyrylcholinesterase (BuChE) (Homo sapiens, UniProt P06276). Briefly: biochemical.
Setting [3] is: Ellman method, pH 7.7, 37 °C, triplicate, ± SEM, read-out: AchE IC50.
Setting [4] is: Ellman method, pH 7.7, 37 °C, triplicate, ± SEM, read-out: BuChE IC50.

Sequence of acetylcholinesterase (AChE) (P22303 32-614, species assumed): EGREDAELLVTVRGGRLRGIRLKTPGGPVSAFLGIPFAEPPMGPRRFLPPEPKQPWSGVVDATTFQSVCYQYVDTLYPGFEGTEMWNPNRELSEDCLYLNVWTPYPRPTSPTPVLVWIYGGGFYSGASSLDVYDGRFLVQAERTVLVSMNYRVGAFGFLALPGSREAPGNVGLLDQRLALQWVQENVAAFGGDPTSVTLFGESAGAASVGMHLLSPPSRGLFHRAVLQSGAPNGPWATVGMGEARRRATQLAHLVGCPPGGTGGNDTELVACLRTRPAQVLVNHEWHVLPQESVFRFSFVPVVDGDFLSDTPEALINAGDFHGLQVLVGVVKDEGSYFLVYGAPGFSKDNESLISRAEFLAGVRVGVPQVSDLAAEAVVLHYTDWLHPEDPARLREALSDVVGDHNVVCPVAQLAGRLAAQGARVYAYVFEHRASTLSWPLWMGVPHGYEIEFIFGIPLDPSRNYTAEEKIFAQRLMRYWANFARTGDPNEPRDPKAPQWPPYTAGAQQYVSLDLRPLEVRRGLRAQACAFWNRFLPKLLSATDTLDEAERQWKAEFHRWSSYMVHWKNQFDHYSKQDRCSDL
Sequence of butyrylcholinesterase (BuChE) (P06276 29-602): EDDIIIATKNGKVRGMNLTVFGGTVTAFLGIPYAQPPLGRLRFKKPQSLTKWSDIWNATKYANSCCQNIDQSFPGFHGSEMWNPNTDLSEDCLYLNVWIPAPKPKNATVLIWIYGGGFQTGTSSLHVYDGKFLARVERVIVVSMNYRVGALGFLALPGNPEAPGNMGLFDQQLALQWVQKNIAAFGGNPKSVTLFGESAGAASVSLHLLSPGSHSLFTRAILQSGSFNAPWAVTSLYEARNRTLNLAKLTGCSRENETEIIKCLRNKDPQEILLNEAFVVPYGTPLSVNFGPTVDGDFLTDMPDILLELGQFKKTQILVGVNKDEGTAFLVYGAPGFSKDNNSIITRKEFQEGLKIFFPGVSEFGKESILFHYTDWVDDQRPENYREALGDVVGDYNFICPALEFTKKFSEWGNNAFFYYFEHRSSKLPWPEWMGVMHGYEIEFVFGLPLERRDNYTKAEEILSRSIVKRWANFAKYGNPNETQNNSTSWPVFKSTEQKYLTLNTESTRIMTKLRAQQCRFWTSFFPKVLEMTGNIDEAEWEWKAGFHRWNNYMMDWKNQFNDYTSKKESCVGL

Broadly, the IC50 is the midpoint of a concentration-inhibition curve. With `O=[N+]([O-])c1cccc(-c2csc(NNS(=O)(=O)c3cc(Cl)cc(Cl)c3O)n2)c1` [analog 1, 3,5-Dichlro-2-hydroxy-N′-(4-(3-nitrophenyl)thiazol-2-yl)benzenesulfonohydrazide], the IC50 in test [1] (setting [3]) was 100 ± 50 nM; in test [2] (setting [4]), 0.2 ± 0.05 µM.
On to `O=[N+]([O-])c1cccc(-c2csc(NNS(=O)(=O)c3ccc(Cl)cc3)n2)c1` [analog 2, 4-Chloro-N′-(4-(3-nitrophenyl)thiazol-2-yl)benzenesulfonohydrazide], for which the results for the IC50 in test [1] (setting [3]) and in test [2] (setting [4]) were 1900 ± 100 nM and 2.7 ± 0.1 µM, respectively.
Regarding `O=[N+]([O-])c1cccc(-c2csc(NNS(=O)(=O)c3cccc([N+](=O)[O-])c3)n2)c1` [analog 3, 3-Nitro-N′-(4-(3-nitrophenyl)thiazol-2-yl)benzenesulfonohydrazide], the IC50 in test [1] came out at 2900 ± 100 nM; in test [2] it was 3.8 ± 0.1 µM.
With `Cc1ccc([N+](=O)[O-])cc1S(=O)(=O)NNc1nc(-c2cccc([N+](=O)[O-])c2)cs1` [analog 4, 2-Methyl-5-nitro-N′-(4-(3-nitrophenyl)thiazol-2-yl)benzenesulfonohydrazide], the IC50 in test [1] was found to be 3200 ± 100 nM; in test [2] it was 6.1 ± 0.2 µM.
Take `O=[N+]([O-])c1ccc(S(=O)(=O)NNc2nc(-c3ccccc3)cs2)cc1` [analog 6, 4-Nitro-N′-(4-phenylthiazol-2-yl)benzenesulfonohydrazide]: the values for the IC50 in test [1] (setting [3]) and in test [2] (setting [4]) were 11400 ± 200 nM and 14.3 ± 0.3 µM, respectively.
For `O=S(=O)(NNc1nc(-c2ccc(Cl)cc2)cs1)c1ccc(Cl)cc1` [analog 7, 4-Chloro-N′-(4-(4-chlorophenyl)thiazol-2-yl)benzenesulfonohydrazide], in that order: 2600 ± 100 nM and 4.2 ± 0.1 µM.
On the same counts, the results for `O=S(=O)(NNc1nc(-c2ccc(-c3ccccc3)cc2)cs1)c1ccc(Cl)cc1` [analog 8, N′-(4-([1,1′-biphenyl]-4-yl)thiazol-2-yl)-4-chlorobenzenesulfonohydrazide] are 7300 ± 100 nM and 9.2 ± 0.1 µM.
On the same counts, the results for `O=S(=O)(NNc1nc(-c2ccc(Cl)cc2)cs1)c1cc(Cl)cc(Cl)c1O` [analog 9, 3,5-Dichloro-N′-(4-(4-chlorophenyl)thiazol-2-yl)-2-hydroxybenzenesulfonohydrazide] are 400 ± 50 nM and 0.7 ± 0.05 µM.
`Cc1ccc([N+](=O)[O-])cc1S(=O)(=O)NNc1nc(-c2ccc(Cl)c(Cl)c2)cs1` [analog 10, N′-(4-(3,4-dichlorophenyl)thiazol-2-yl)-2-methyl-5-nitrobenzenesulfonohydrazide]: the IC50 in test [1] (setting [3]) worked out at 200 ± 50 nM; in test [2] (setting [4]) it was 0.6 ± 0.05 µM.
For `Cc1ccc([N+](=O)[O-])cc1S(=O)(=O)NNc1nc(-c2ccc(Cl)cc2)cs1` [analog 11, N′-(4-(4-chlorophenyl)thiazol-2-yl)-2-methyl-5-nitrobenzenesulfonohydrazide], in that order: 3100 ± 100 nM and 4.4 ± 0.1 µM.
Consider `O=[N+]([O-])c1cccc(S(=O)(=O)NNc2nc(-c3ccc(Cl)c(Cl)c3)cs2)c1` [analog 13, N′-(4-(3,4-dichlorophenyl)thiazol-2-yl)-3-nitrobenzenesulfonohydrazide], for which the IC50 in test [1] (setting [3]) was determined as 300 ± 100 nM; in test [2] (setting [4]), 1.4 ± 0.1 µM.
With `O=[N+]([O-])c1cccc(S(=O)(=O)NNc2nc(-c3ccc(Cl)cc3)cs2)c1` [analog 14, N′-(4-(4-chlorophenyl)thiazol-2-yl)-3-nitrobenzenesulfonohydrazide], the IC50 is 1200 ± 100 nM in test [1] (setting [3]) and 2.7 ± 0.1 µM in test [2] (setting [4]).
For `O=S(=O)(NNc1nc(-c2ccc(Cl)c(Cl)c2)cs1)c1ccc(Cl)cc1` [analog 15, 4-Chloro-N′-(4-(3,4-dichlorophenyl)thiazol-2-yl)benzenesulfonohydrazide], the IC50 is 400 ± 100 nM in test [1] (setting [3]) and 0.9 ± 0.1 µM in test [2] (setting [4]).
On the same counts, the results for `Cc1ccc([N+](=O)[O-])cc1S(=O)(=O)NNc1nc(-c2ccc(-c3ccccc3)cc2)cs1` [analog 16, N′-(4-([1,1′-biphenyl]-4-yl)thiazol-2-yl)-2-methyl-5-nitrobenzenesulfonohydrazide] are 300 ± 50 nM and 0.3 ± 0.05 µM.
Turning to `O=[N+]([O-])c1ccc([N+](=O)[O-])c(S(=O)(=O)NNc2nc(-c3ccc(-c4ccccc4)cc3)cs2)c1` [analog 19, N′-(4-([1,1′-biphenyl]-4-yl)thiazol-2-yl)-2,5-dinitrobenzenesulfonohydrazide], the IC50 in test [1] stood at 3100 ± 100 nM; in test [2] it was 4.3 ± 0.1 µM.
For `O=[N+]([O-])c1ccc(S(=O)(=O)NNc2nc(-c3cccc([N+](=O)[O-])c3)cs2)cc1` [analog 20, 4-Nitro-N′-(4-(3-nitrophenyl)thiazol-2-yl)benzenesulfonohydrazide], in that order: 3500 ± 100 nM and 5.5 ± 0.1 µM.
Consider `O=[N+]([O-])c1ccc(S(=O)(=O)NNc2nc(-c3ccc(-c4ccccc4)cc3)cs2)cc1` [analog 21, N′-(4-([1,1′-biphenyl]-4-yl)thiazol-2-yl)-4-nitrobenzenesulfonohydrazide], for which the IC50 in test [1] (setting [3]) came to 3200 ± 100 nM; in test [2] (setting [4]), 5.4 ± 0.1 µM.
